Read-outs that look alike come from different tables or passages of the source.
Tests used:
[1] = human, cited from earlier work
[2] = Metabolite profiling and identification in rat hepatocytes; format: in vitro ADME, rat (Sprague Dawley); design: key to Source (peak identified in rat hepatocytes): R = Rat; hr = Human; lowercase letter indicates low abundance; h: lowercase letter indicates low abundance; settings: for Percent Distribution (1 hr incubation) Rat / Percent Distribution (2 hr incubation) Rat: relative abundance among metabolites of the parent (1 μM), equal LC/MS sensitivity assumed
Experimental: (§1) Cryopreserved hepatocytes were grown in culture and incubations were performed to generate samples to measure the formation of FTY720-C2 and FTY720-Mitoxy metabolites. Incubations of 1 mL medium containing 1 million cells and 1 μM of FTY720-C2 and FTY720-Mitoxy were conducted at 37° C in a 5% CO2 incubator for 0, 1 and 2 hr, with gentle shaking. Positive control incubations used a cocktail solution containing 10 μM testosterone and 10 μM diclofenac performed for 0, 1 and 2 hr, under similar conditions to confirm the metabolic activity of the hepatocytes. The reactions were terminated by adding 2 mL acetonitrile containing 0.02% formic acid, and thoroughly mixing with gentle vortexing. Samples were transferred into 6 mL vials and stored in the freezer (-70°C) overnight for protein precipitation. Following overnight precipitations, samples were centrifuged at 3,000 rpm for 10 min to pellet proteins. Supernatants were transferred into clean 6 mL vials and evaporated to dryness using a TurboVap concentrator system. Samples were reconstituted using 600 μL 20% acetonitrile in water, briefly vortexed to resuspend, then aliquoted for LC-MS/MS analysis. Controls incubations also included “No drug control” and “no cell control” samples treated in a similar manner as test article samples.
(§2) Metabolite profiling and identification experiments were conducted by LC-MS/MS, composed of an HPLC system consisting of an Agilent Technologies 1200 Series Model G1322A Degasser, Agilent Technologies 1200 Series Model G1312A Binary Pump, Shimadzu HTc autosampler, and Valco Model E60 Flow Diversion Valve, and coupled to an API 4000 mass spectrometer. Separations were accomplished on a Gemini C18 column (150 × 2.0 mm, 5-μm particles; Phenomenex Inc., Torrance, CA), preceded by a SecurityGuard C18 guard column (4.0 × 2.0 mm; Phenomenex Inc.). A two-component mobile phase, consisted of a linear gradient of water containing 0.5% formic acid (v/v) and methanol:acetonitrile (1:1, v/v) containing 0.5% formic acid (v/v), was pumped at 0.3 mL/min. The first 4 min of flow was diverted away from the mass spectrometer. Analysis of the positive control samples was conducted with an HPLC system consisting of two Shimadzu LC-10ATvp pumps and a LEAP Pal autosampler. Separations were accomplished on a Luna C8(2) column (50 × 2.0 mm, 3-μm particles; Phenomenex Inc., Torrance, CA), preceded by a SecurityGuard C18 column (4.0 × 2.0 mm; Phenomenex Inc.). Separation was accomplished with a gradient of water containing 0.2% formic acid and 0.012% NH4OH (v/v) versus acetonitrile at an initial rate of 0.7 mL/min. An API 4000 QTrap mass spectrometer (AB Sciex, Foster City, CA) was used for analysis of positive control samples. Each mass spectrometer used was equipped with an electrospray ionization source and operated in the positive ionization mode. Metabolite identification experiments were performed by recording full scan mass spectral data (Q1MS) for all samples, and selected samples were analyzed to obtain product ion spectra (MS/MS) of test article metabolites identified in the full scan mass spectral data.

[3] = Metabolic stability (intrinsic clearance) in rat liver microsomes; format: in vitro ADME, rat (Sprague-Dawley); settings: rat liver microsomes
Experimental: (§3) Liver microsomal incubations contained 0.1mg/mL microsomal proteins and 1 μM of FTY720-C2 or FTY720-Mitoxy in 100 mM potassium phosphate buffer (pH 7.4) ± an NADPH regenerating system (3.5 mM glucose 6-phosphate, 1.3 mM NADP^+, and 0.4 units/mL glucose-6-phosphate dehydrogenase). Following incubations, reactions were terminated for analysis after 0, 10, 20, 30, and 60 min by the addition of acetonitrile containing C17 sphingosine (300 ng/mL) as the internal standard. Samples were vigorously mixed and centrifuged at 3,400 rpm for 10 min to pellet precipitated proteins. An aliquot of each supernatant was used for LC/MS analysis, for determination of the remaining FTY720-C2 and FTY720-Mitoxy. Similar incubations were performed using a cocktail solution containing 0.2 μM midazolam and 1 μM diclofenac to determine the metabolic activity of the microsomes as an additional control.
(§4) Samples resulting from liver microsomal incubations were analyzed by LC-MS/MS. Aliquots of the supernatants were injected onto an X-Bridge C18 column (2.1 × 50 mm, 3.5-μm particles) (Waters, Milford, MA), preceded by a SecurityGuard C18 guard column (4.0 × 2.0 mm; Phenomenex Inc.). Separations were accomplished with a gradient of 0.1% acetic acid in water (v/v) versus 0.1% acetic acid in acetonitrile: methanol (75:25, v/v) at a rate of 0.8 mL/min. The eluents were further applied into an equipped API 4000 QTrap mass spectrometer (AB Sciex, Foster City, CA) with electrospray ionization (ESI) interface by two coupled LC-10 AT pumps. Peak area ratios of FTY720-C2 or FTY720-Mitoxy against the C17 sphingosine internal standard were used to determine the amount of parent remaining compared to that at 0 min. The percent of FTY720-C2 or FTY720-Mitoxy remaining was calculated by dividing the peak area ratio obtained at each time point by that obtained at 0 min. The in vitro intrinsic clearance (CLint) was calculated by linear regression of the log percent of compound remaining versus time plots using Microsoft Excel, two independent experiments (n = 2) were performed for each compound and species. Then, the mean and standard deviation (SD), of two values for each condition, were calculated using Microsoft Excel with the “AVERAGE” and “STDEV” functions, respectively.

[4] = Metabolic stability (intrinsic clearance) in human liver microsomes; format: in vitro ADME
Experimental: as §3, §4

[5] = Metabolic stability (intrinsic clearance) in mouse liver microsomes; format: in vitro ADME, mouse (CD-1); settings: mouse liver microsomes
Experimental: as §3, §4

[6] = design: method as in PMID 16751263; settings: rat, single IV doses ranging from 0.3 to 4 mg/kg; cited from earlier work
[7] = Metabolic stability (intrinsic clearance) in dog liver microsomes; format: in vitro ADME, dog (Beagle); settings: dog liver microsomes
Experimental: as §3, §4

[8] = Metabolite profiling and identification in human hepatocytes; format: in vitro ADME; design: key to Source (peak identified in human hepatocytes): R = Rat; hr = Human; lowercase letter indicates low abundance; h: lowercase letter indicates low abundance; settings: for Percent Distribution (1 hr incubation) Human / Percent Distribution (2 hr incubation) Human: relative abundance among metabolites of the parent (1 μM), equal LC/MS sensitivity assumed
Experimental: as §1, §2

[9] = Metabolic stability (intrinsic clearance) in monkey liver microsomes; format: in vitro ADME, monkey (Cynomolgus); settings: monkey liver microsomes
Experimental: as §3, §4

[10] = rat hepatocytes, listed as FTY720-C2 C8-COOH
[11] = human hepatocytes, listed as FTY720-C2 C8-COOH
[12] = FTY720-Mitoxy incubation, Table 5
[13] = rat hepatocytes, listed as FTY720-Mitoxy C6-COOH
[14] = human hepatocytes, listed as FTY720-Mitoxy C6-COOH

| SMILES | Source (peak identified in rat hepatocytes) ([2]; FTY720-C2 incubation, Table 4) | Percent Distribution (1 hr incubation) Rat ([2]; rat hepatocytes) [%] | Percent Distribution (2 hr incubation) Rat ([2]; rat hepatocytes) [%] | Source (peak identified in human hepatocytes) ([8]; FTY720-C2 incubation, Table 4) | Percent Distribution (1 hr incubation) Human ([8]; human hepatocytes) [%] | Percent Distribution (2 hr incubation) Human ([8]; human hepatocytes) [%] | Source (peak identified in rat hepatocytes) [2, 12] | Source (peak identified in human hepatocytes) [8, 12] | further results |
| --- | --- | --- | --- | --- | --- | --- | --- | --- | --- |
| CCCCCCCCc1ccc(CCC(N)(CO)CO)cc1 [FTY720, Fingolimod] |  |  |  |  |  |  |  |  | elimination half-life ([1]; after oral dosing): about 7 days; half-life ([1]; single oral doses of 1 mg): ~ 7 days; phosphorylated metabolites ([2]; rat hepatocytes): identified; intrinsic clearance interpreted in words [3]: slow and low; intrinsic clearance interpreted in words [4]: slow and low; intrinsic clearance interpreted in words [5]: slow and low; half-life [6]: ~ 20 hr; intrinsic clearance interpreted in words [7]: slow and low; phosphorylated metabolites ([8]; human hepatocytes): identified; intrinsic clearance interpreted in words [9]: slow and low |
| CC(=O)NC(CO)(CO)CCc1ccc(CCCCCCCC(=O)O)cc1 [FTY720-C2 C8-carboxylic acid] | R | 37.0 | 39.37 | H | 49.0 | 52.13 |  |  | Percent Distribution (1 hr incubation) Rat [2, 10]: 37%; Percent Distribution (2 hr incubation) Rat [2, 10]: 39%; Percent Distribution (1 hr incubation) Human [8, 11]: 49%; Percent Distribution (2 hr incubation) Human [8, 11]: 52% |
| O=C(O)CCCCCc1ccc(CCC(CO)(CO)NC(=O)CC[P+](c2ccccc2)(c2ccccc2)c2ccccc2)cc1 [FTY720-Mitoxy C6-carboxylic acid] |  | 83.6 | 79.3 |  | 58.6 | 54.8 | R | H | Percent Distribution (1 hr incubation) Rat [2, 13]: 84%; Percent Distribution (2 hr incubation) Rat [2, 13]: 79%; Percent Distribution (1 hr incubation) Human [8, 14]: 59%; Percent Distribution (2 hr incubation) Human [8, 14]: 55% |
| O=C(O)CCCCCCCc1ccc(CCC(CO)(CO)NC(=O)CC[P+](c2ccccc2)(c2ccccc2)c2ccccc2)cc1 [FTY720-Mitoxy C8-carboxylic acid] |  | 4.4 | 3.4 |  | 20.0 | 27.3 | R | H |  |

The next lines start with results.

| Source (peak identified in rat hepatocytes) ([2]; FTY720-C2 incubation, Table 4) | Percent Distribution (1 hr incubation) Rat ([2]; rat hepatocytes) [%] | Percent Distribution (2 hr incubation) Rat ([2]; rat hepatocytes) [%] | Source (peak identified in human hepatocytes) ([8]; FTY720-C2 incubation, Table 4) | Percent Distribution (1 hr incubation) Human ([8]; human hepatocytes) [%] | Percent Distribution (2 hr incubation) Human ([8]; human hepatocytes) [%] | SMILES | Source (peak identified in rat hepatocytes) [2, 12] | Source (peak identified in human hepatocytes) [8, 12] | further results |
| --- | --- | --- | --- | --- | --- | --- | --- | --- | --- |
| R | 21.4 | 35.72 | H | 3.2 | 7.21 | CC(=O)NC(CO)(CO)CCc1ccc(CC(=O)O)cc1 [FTY720-C2 C2-carboxylic acid] |  |  |  |
| R | 9.7 | 12.88 | H | 23.7 | 25.57 | CC(=O)NC(CO)(CO)CCc1ccc(CCCC(=O)O)cc1 [FTY720-C2 C4-carboxylic acid] |  |  |  |

— publication PMC5017749, “Preclinical Metabolism, Pharmacokinetics and In Vivo Analysis of New Blood-Brain-Barrier Penetrant Fingolimod Analogues: FTY720-C2 and FTY720-Mitoxy” (PLoS ONE, 2016)
